Some test systems named below: ACHN renal; COLO 205 colon; HOP-62 NSCLC; HT29 colon; K-562 leukemia; LOX IMVI melanoma; M14 melanoma; M19-MEL melanoma; MALME-3M melanoma; MOLT-4 leukemia; NCI-H23 lung; OVCAR-3 ovarian; SNB-75 CNS; SR leukemia; U251 CNS; UACC-62 melanoma; HOP-92 NSCLC; MDA-MB-435; MDA-N; UACC-257 melanoma.
Holding throughout (experiment): NCI-60 cell line screen, 48 h

The structures appear in SMILES notation.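 A five-concentration, 48-hour dose response in 96-well plates underlies each endpoint, interpolated linearly between surrounding concentrations. TGI marks complete inhibition of growth.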 Bounds are passed on as bounds.

On to `C=CCNC(=S)N1c2ccccc2NC(=O)CC1C` (configuration not stated), for which the TGI in the test on ACHN renal, in the test with COLO 205 colon, in the test with HOP-62 NSCLC, with HT29 colon, in the test on K-562 leukemia and in the test on LOX IMVI melanoma was greater than 100 µM in each case. The TGI in the test with M14 melanoma, in the test with M19-MEL melanoma, in the test on MALME-3M melanoma, in the test on MOLT-4 leukemia, in the test on NCI-H23 lung and in the test with OVCAR-3 ovarian was greater than 100 µM in each case. Moreover, the TGI in the test on SNB-75 CNS, in the test on SR leukemia, in the test on U251 CNS and in the test with UACC-62 melanoma was greater than 100 µM throughout.

For the molecule `COc1c2c(cc3c1C(O)N1CC[C@]34[C@H]3O[C@H]3[C@H](OC)C[C@@H]14)OCO2` (some centres not stated), the TGI in the test on ACHN renal, in the test on COLO 205 colon, in the test with HOP-62 NSCLC, with HOP-92 NSCLC, with HT29 colon and with K-562 leukemia was greater than 100 µM in each case. Besides, the TGI is greater than 100 µM in the test on LOX IMVI melanoma; greater than 100 µM in the test with M14 melanoma; greater than 100 µM with MALME-3M melanoma; greater than 100 µM in the test on MDA-MB-435; 67.8 µM in the test on MDA-N; greater than 100 µM in the test on MOLT-4 leukemia. The TGI is greater than 100 µM in the test on NCI-H23 lung; 38.4 µM in the test with OVCAR-3 ovarian; greater than 100 µM in the test on SNB-75 CNS; 88.6 µM with SR leukemia; greater than 100 µM in the test on U251 CNS; greater than 100 µM with UACC-257 melanoma. Also, the TGI in the test with UACC-62 melanoma is greater than 100 µM.

`Nc1cc2c3c(cccc3c1)C(=O)N(c1ccc(OCCN3CCCCC3)cc1)C2=O`: the TGI was found to be 29.4 µM in the test on ACHN renal; 35.7 µM with COLO 205 colon; 31.8 µM with HOP-62 NSCLC; 34.2 µM in the test on HOP-92 NSCLC; 31.9 µM in the test on HT29 colon; 29.8 µM in the test with K-562 leukemia. Further, the TGI in the test on LOX IMVI melanoma was determined as 35.4 µM; in the test on M14 melanoma it was 32.3 µM; in the test on MALME-3M melanoma it was 19.8 µM; in the test on MDA-MB-435, 55.7 µM; in the test on MDA-N, 41.2 µM; in the test on MOLT-4 leukemia, 35.7 µM. The TGI with NCI-H23 lung is 30.2 µM; in the test with OVCAR-3 ovarian, 30.7 µM; in the test with SNB-75 CNS it was 30.6 µM; in the test on SR leukemia, 36.6 µM; with U251 CNS, 61.6 µM; in the test on UACC-257 melanoma, 31.6 µM. Moreover, the TGI in the test on UACC-62 melanoma was found to be 36.6 µM.

On to `NS(=O)(=O)c1ccc(NNc2c3ccccc3nc3ccccc23)cc1`, for which the TGI stood at 19.9 µM in the test on ACHN renal; 13.9 µM in the test with COLO 205 colon; 22.4 µM with HOP-62 NSCLC; 23.4 µM in the test on HOP-92 NSCLC; 13.6 µM in the test on HT29 colon; 19.9 µM with K-562 leukemia. In addition, the TGI in the test with LOX IMVI melanoma was 14.5 µM; with M14 melanoma, 15.9 µM; in the test on MALME-3M melanoma, 15.9 µM; in the test on MDA-MB-435 it was 17 µM; with MDA-N, 17.5 µM; with MOLT-4 leukemia it was 19.2 µM. Moreover, the TGI with NCI-H23 lung came to 22.1 µM; in the test with OVCAR-3 ovarian, 15 µM; in the test on SNB-75 CNS, 21.9 µM; with SR leukemia, 21.4 µM; with U251 CNS it was 16.3 µM; with UACC-257 melanoma, 18 µM. The molecule further came in with a TGI in the test on UACC-62 melanoma of 17.2 µM.

Consider `CCOC(=O)c1sc2nc(SC)nc3c2c1N=CN3c1ccccc1Cl`, for which the TGI with ACHN renal was 55.3 µM; in the test with COLO 205 colon it was greater than 100 µM; with HOP-62 NSCLC, 32.6 µM; in the test on HOP-92 NSCLC it was 74.5 µM; in the test with HT29 colon, greater than 100 µM; in the test with K-562 leukemia, greater than 100 µM. The TGI with LOX IMVI melanoma, in the test with M14 melanoma, with MALME-3M melanoma, with MDA-MB-435, with MDA-N and with MOLT-4 leukemia was greater than 100 µM in each case. Further, the TGI with NCI-H23 lung is greater than 100 µM; in the test with OVCAR-3 ovarian, greater than 100 µM; in the test with SNB-75 CNS, 36.3 µM; with SR leukemia, 89.9 µM; with U251 CNS, greater than 100 µM; with UACC-257 melanoma it was greater than 100 µM. This molecule showed a TGI with UACC-62 melanoma greater than 100 µM.

Consider `Nc1ccccc1N/C(=C\C(=O)C(Cl)(Cl)Cl)c1ccccc1`, for which the TGI is 75.4 µM in the test with ACHN renal; 98.1 µM in the test on COLO 205 colon; 75.1 µM with HOP-62 NSCLC; 41.8 µM in the test on HOP-92 NSCLC; greater than 100 µM in the test on HT29 colon; greater than 100 µM in the test with K-562 leukemia. The TGI was 35.6 µM in the test with LOX IMVI melanoma; 42.2 µM in the test on M14 melanoma; 37.7 µM with MALME-3M melanoma; greater than 100 µM in the test with MDA-MB-435; 39 µM in the test on MDA-N; greater than 100 µM in the test on MOLT-4 leukemia. For the same molecule, the TGI in the test on NCI-H23 lung was greater than 100 µM; in the test with OVCAR-3 ovarian, 65.2 µM; with SNB-75 CNS, greater than 100 µM; with SR leukemia, greater than 100 µM; with U251 CNS it was 32 µM; in the test with UACC-257 melanoma it was 79.1 µM. For the same molecule, in the test with UACC-62 melanoma, the TGI is 45.3 µM.

In the case of `O=[N+]([O-])c1ccc2c(c1)c(N=NC(=S)NC1CCCCC1)c(O)n2CN1CCOCC1`, the TGI in the test on ACHN renal is 18 µM; in the test on COLO 205 colon, 23.4 µM; in the test with HOP-62 NSCLC, 23.8 µM; in the test with HOP-92 NSCLC it was 12.9 µM; with HT29 colon, 17.9 µM; in the test with K-562 leukemia, greater than 100 µM. The TGI with LOX IMVI melanoma is 19.3 µM; with M14 melanoma it was 21.8 µM; with MALME-3M melanoma, 24.4 µM; in the test with MDA-MB-435, 20 µM; with MDA-N, 20 µM; with MOLT-4 leukemia, greater than 100 µM. For the same molecule, the TGI in the test on NCI-H23 lung worked out at 21.4 µM; in the test on OVCAR-3 ovarian it was 20.4 µM; with SNB-75 CNS, 24.2 µM; in the test with SR leukemia it was 21.5 µM; with U251 CNS, 17.3 µM; with UACC-257 melanoma it was 22.7 µM. In the test with UACC-62 melanoma, this molecule gave a TGI of 20.5 µM.

On to `CC(=O)CCNc1ccc(-c2cc(-c3ccc(N(C)C)cc3)nc3ccc4ccccc4c23)cc1`, for which the TGI with ACHN renal is greater than 100 µM; in the test with COLO 205 colon, greater than 88.3 µM; in the test on HOP-62 NSCLC, greater than 100 µM; in the test with HOP-92 NSCLC, greater than 100 µM; with HT29 colon, greater than 100 µM; in the test with K-562 leukemia, greater than 100 µM. Moreover, the TGI in the test with LOX IMVI melanoma is greater than 100 µM; with M14 melanoma, greater than 88.8 µM; with MALME-3M melanoma, greater than 100 µM; with MDA-MB-435 it was greater than 100 µM; in the test with MDA-N it was greater than 100 µM; in the test with MOLT-4 leukemia, greater than 100 µM. Also, the TGI in the test on NCI-H23 lung, with OVCAR-3 ovarian, in the test on SNB-75 CNS, in the test on SR leukemia, with U251 CNS and in the test with UACC-257 melanoma was greater than 100 µM in each case. In the test with UACC-62 melanoma, this molecule returned a TGI greater than 100 µM.

Take `COc1ccc(N=c2ssc(C(=S)Nc3ccc(OC)cc3)c2S)cc1`: the TGI in the test on ACHN renal, with COLO 205 colon, with HOP-62 NSCLC, in the test on HOP-92 NSCLC, with HT29 colon and in the test on K-562 leukemia was greater than 100 µM each time. In addition, the TGI in the test on LOX IMVI melanoma, with M14 melanoma, in the test on MALME-3M melanoma, with MDA-MB-435, with MDA-N and in the test on MOLT-4 leukemia was greater than 100 µM each time. Further, the TGI in the test with NCI-H23 lung, in the test on OVCAR-3 ovarian, with SNB-75 CNS, with SR leukemia, with U251 CNS and in the test with UACC-257 melanoma was greater than 100 µM throughout. This molecule also displayed a TGI in the test with UACC-62 melanoma greater than 100 µM.

For the molecule `CCOC(=O)C(Cc1c2ccccc2cc2ccccc12)(NC(C)=O)C(=O)OCC`, the TGI was greater than 100 µM in the test on ACHN renal; greater than 100 µM in the test on COLO 205 colon; greater than 100 µM in the test with HOP-62 NSCLC; 83.1 µM in the test with HOP-92 NSCLC; greater than 100 µM in the test on HT29 colon; greater than 100 µM in the test on K-562 leukemia. Besides, the TGI was greater than 100 µM in the test on LOX IMVI melanoma; greater than 100 µM in the test with M14 melanoma; greater than 100 µM in the test with MALME-3M melanoma; greater than 100 µM in the test on MDA-MB-435; greater than 100 µM with MDA-N; greater than 90.1 µM in the test on MOLT-4 leukemia. The TGI was greater than 100 µM in the test on NCI-H23 lung; greater than 100 µM with OVCAR-3 ovarian; greater than 80.6 µM with SNB-75 CNS; greater than 100 µM in the test on SR leukemia; greater than 100 µM in the test with U251 CNS; greater than 100 µM with UACC-257 melanoma. For the same molecule, the TGI with UACC-62 melanoma is greater than 80.9 µM.

These data come from PubChem BioAssay (NCI).
